Reference: patent US11530217B1, “Antitubercular compounds” (priority 2022, dated 2022)
Values after ≈ are worked out from the molar mass of the structure shown.

tested on: rifampicin and isoniazid-resistant MTB strain (MDR-MTB); experiment: microbe, parasite or virus in culture; type: cell-based; conditions: Mycobacterium tuberculosis, 192 h, read-out: MIC (μg/mL) MDR-MTB

Going from `COC(=O)c1c(C(=O)OC)c2c(C)cc(C)cn2c1C(=O)c1ccc(C)cc1` [Compound 5m, Dimethyl 6,8-dimethyl-3-(4-methylbenzoyl)indolizine-1,2-dicarboxylate] to `COC(=O)c1c(C(=O)OC)c2c(C)cc(C)cn2c1C(=O)c1ccc(Cl)cc1` [Compound 5d, Dimethyl 3-(4-chlorobenzoyl)-6,8-dimethylindolizine-1,2-dicarboxylate], the MIC rises from 1 µg/mL (≈ 2.64 µM) to 64 µg/mL (≈ 160 µM) (64-fold).

Going from `COC(=O)c1c(C(=O)OC)c2c(C)cc(C)cn2c1C(=O)c1ccc(C#N)cc1` [Compound 5l, Dimethyl 3-(4-cyanobenzoyl)-6,8-dimethylindolizine-1,2-dicarboxylate] to `COC(=O)c1c(C(=O)OC)c2c(C)cc(C)cn2c1C(=O)c1ccc(OC)cc1` [Compound 5b, Dimethyl 3-(4-methoxybenzoyl)-6,8-dimethylindolizine-1,2-dicarboxylate], the MIC rises from 8 µg/mL (≈ 20.5 µM) to 64 µg/mL (≈ 162 µM) (8-fold).

First: CCOC(=O)c1cc(C(=O)c2ccc(C#N)cc2)n2cc(C)cc(C)c12 [Compound 5j, Ethyl 3-(4-cyanobenzoyl)-6,8-dimethylindolizine-1-carboxylate]
Second: CCOC(=O)c1cc(C(=O)c2ccc(Cl)cc2)n2cc(C)cc(C)c12 [Compound 5c, Ethyl 3-(4-chlorobenzoyl)-6,8-dimethylindolizine-1-carboxylate]
The MIC of the first is 4-fold higher: 4 µg/mL (≈ 11.5 µM) for the first, 1 µg/mL (≈ 2.81 µM) for the second.

`CCOC(=O)c1cc(C(=O)c2ccccc2[N+](=O)[O-])n2cc(C)cc(C)c12` [Compound 5h, Ethyl 6,8-dimethyl-3-(2-nitrobenzoyl)indolizine-1-carboxylate] and `CCOC(=O)c1cc(C(=O)c2ccc(C)cc2)n2cc(C)cc(C)c12` [Compound 5k, Ethyl 6,8-dimethyl-3-(4-methylbenzoyl)indolizine-1-carboxylate] are the same in MIC: 4 µg/mL (≈ 10.9 µM) for the first, 4 µg/mL (≈ 11.9 µM) for the second.

Compared with `CCOC(=O)c1cc(C(=O)c2cc(C(F)(F)F)cc(C(F)(F)F)c2)n2cc(C)cc(C)c12` [Compound 5i, Ethyl 3-(3,5-bis(trifluoromethyl)benzoyl)-6,8-dimethylindolizine-1-carboxylate], `CCOC(=O)c1cc(C(=O)c2ccc(F)cc2)n2cc(C)cc(C)c12` [Compound 5g, Ethyl 3-(4-fluorobenzoyl)-6,8-dimethylindolizine-1-carboxylate] is 4-fold lower in MIC: 16 µg/mL (≈ 35 µM) for the first, 4 µg/mL (≈ 11.8 µM) for the second.
